# Test results published in US20250320189A1, “NEW DERIVATIVES FOR TREATING TRPM3 MEDIATED DISORDERS” (Katholieke Universiteit Leuven, priority 2022, published 2025).
# Target: T1, mouse TRPM3α2 (mTRPM3) ion channel (Mus musculus, UniProt J9SQF3)
# T1 construct: expressed in transfected cells; host or cells: flip-in (Flp-In) HEK293
# Test: Monitoring the TRPM3 ion channel driven Ca2+ uptake (Fluo-4 AM assay)
# Format: cell-based
# Settings: mTRPM3alpha2 overexpressing flip-in HEK293 cells, stimulated with Pregnenolone sulfate (PS) 50 μM
# Procedure: In order to monitor the inhibition of the mouse TRPM3α2 (mTRPM3) ion channel by the compounds of the invention, a cellular system making use of an mTRPM3alpha2 or hTRPM3 overexpressing cell line (flip-in HEK293) was used. The TRPM3 channel was stimulated/opened with Pregnenolone sulfate (PS) (50 μM) which results in Ca^2+ influx.
# For mTRPM3, the intracellular Ca^2+ was measured with a Calcium responsive dye, Fluor-4 AMV ester (Invitrogen). Cells were cultured until a confluence of 80-90%, washed with Versene (Invitrogen) and detached from the surface by a short incubation with 0.05% Trypsin (Invitrogen). The trypsination process was stopped by the addition of complete cell culture medium (DMEM, glutamax, 10% FCS, NEAA,Pen-Strep). Cells were collected and resuspended in Krebs buffer without Calcium at RT.
# Prior the cell seeding (±2000 cells/well into a black, 384 well plate (Greiner)) the diluted compound was added in the assay plate, together with the PS dissolved in Krebs buffer containing Calcium. […] Directly after cell addition the plates were read on an Envision fluorescence reader (PerkinElmer) by an Excitation of 485 nm and emission at 535 nm.
# Channel inhibition was calculated compared to a non-PS stimulated control versus a condition stimulated with PS (50 μM) with vehicle. The ability of the compounds of the invention to inhibit this activity was determined as: Percentage inhibition=[1−((RFU determined for sample with test compound present−RFU determined for sample with positive control inhibitor) divided by (RFU determined in the presence of vehicle−RFU determined for sample with positive control inhibitor))]*100.
# The activities of the Example compounds tested are depicted in the table below. The activity ranges A, B and C refer to IC50 values in the Fluo-4 AM assay as follows: “A”: IC50<1 μM; “B”: 1 μM≤IC50≤20 μM and “C”: IC50>20 μM
# T1 sequence (J9SQF3 1-1709 isoform J9SQF3-12): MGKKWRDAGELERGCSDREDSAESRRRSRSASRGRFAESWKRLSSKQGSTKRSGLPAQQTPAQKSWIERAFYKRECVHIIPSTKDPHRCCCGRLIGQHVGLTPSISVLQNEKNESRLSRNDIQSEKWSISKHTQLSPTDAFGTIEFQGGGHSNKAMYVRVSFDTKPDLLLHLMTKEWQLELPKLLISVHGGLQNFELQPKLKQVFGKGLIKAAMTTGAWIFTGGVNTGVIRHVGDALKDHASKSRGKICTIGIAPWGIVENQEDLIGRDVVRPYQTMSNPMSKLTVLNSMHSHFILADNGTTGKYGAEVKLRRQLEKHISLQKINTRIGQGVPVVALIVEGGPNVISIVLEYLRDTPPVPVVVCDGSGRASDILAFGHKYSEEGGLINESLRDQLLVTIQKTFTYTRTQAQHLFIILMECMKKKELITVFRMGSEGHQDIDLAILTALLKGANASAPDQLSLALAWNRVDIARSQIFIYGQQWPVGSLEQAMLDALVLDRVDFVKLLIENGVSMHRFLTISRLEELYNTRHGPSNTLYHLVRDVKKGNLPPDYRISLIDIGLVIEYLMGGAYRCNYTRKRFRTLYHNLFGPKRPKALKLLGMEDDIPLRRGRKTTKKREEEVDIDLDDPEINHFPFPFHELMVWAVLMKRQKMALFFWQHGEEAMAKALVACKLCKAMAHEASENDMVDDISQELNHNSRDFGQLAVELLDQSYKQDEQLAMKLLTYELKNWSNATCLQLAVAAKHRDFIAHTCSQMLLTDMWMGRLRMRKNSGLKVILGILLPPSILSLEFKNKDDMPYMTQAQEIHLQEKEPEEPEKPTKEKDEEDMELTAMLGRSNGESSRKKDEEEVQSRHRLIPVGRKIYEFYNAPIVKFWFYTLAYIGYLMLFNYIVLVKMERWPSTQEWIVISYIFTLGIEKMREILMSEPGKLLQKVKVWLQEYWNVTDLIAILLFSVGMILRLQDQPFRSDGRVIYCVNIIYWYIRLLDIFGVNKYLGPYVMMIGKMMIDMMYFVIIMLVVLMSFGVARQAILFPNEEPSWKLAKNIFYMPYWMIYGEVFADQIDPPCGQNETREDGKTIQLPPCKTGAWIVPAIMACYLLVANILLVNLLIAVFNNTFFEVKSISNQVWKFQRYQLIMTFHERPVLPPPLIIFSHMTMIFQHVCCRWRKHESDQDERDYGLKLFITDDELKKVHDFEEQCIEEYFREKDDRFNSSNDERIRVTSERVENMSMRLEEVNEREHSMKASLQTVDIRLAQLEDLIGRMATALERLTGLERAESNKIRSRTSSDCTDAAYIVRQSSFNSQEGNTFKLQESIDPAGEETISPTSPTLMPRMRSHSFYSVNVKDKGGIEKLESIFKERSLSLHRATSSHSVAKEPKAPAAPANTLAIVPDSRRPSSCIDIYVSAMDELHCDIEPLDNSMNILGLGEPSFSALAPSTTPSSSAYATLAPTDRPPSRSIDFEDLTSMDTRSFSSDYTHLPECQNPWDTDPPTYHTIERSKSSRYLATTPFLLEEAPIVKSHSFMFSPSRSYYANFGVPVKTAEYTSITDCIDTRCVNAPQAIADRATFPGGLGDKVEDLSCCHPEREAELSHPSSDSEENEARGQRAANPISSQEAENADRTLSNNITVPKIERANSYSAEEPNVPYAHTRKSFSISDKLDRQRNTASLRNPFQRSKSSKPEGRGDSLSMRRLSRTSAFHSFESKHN
row,IC50,Structure (SMILES)
1,< 1000 nM,"Cc1oc2ccc(OCC(F)F)cc2c1C(=O)N[C@H](C(N)=O)[C@@H](C)O [Cpd 040, (2S,3R)-2-{[5-(2,2-difluoroethoxy)-2-methyl-1-benzofuran-3-yl]formamido}-3-hydroxybutanamide]"
2,< 1000 nM,"Cc1oc2ccc(OCC3CC3(F)F)cc2c1C(=O)N[C@@H](CO)C(N)=O (single isomer, unassigned) [Cpd 002 - En2]"
3,< 1000 nM,"Cc1oc2ccc(OCC(C)(C)C)cc2c1C(=O)N[C@@H](CO)C(N)=O [Cpd 039, (2S)-2-{[5-(2,2-dimethylpropoxy)-2-methyl-1-benzofuran-3-yl]formamido}-3-hydroxypropanamide]"
4,< 1000 nM,"Cc1oc2ccc(OCC3(C(F)F)CC3)cc2c1C(=O)NC1(C(N)=O)CCOC1 (single isomer, unassigned) [Cpd 036 - En2, N-(3-carbamoyloxolan-3-yl)-5-{[1-(difluoromethyl)cyclopropyl]methoxy}-2-methyl-1-benzofuran-3-carboxamide]"
5,< 1000 nM,"Cc1oc2ccc(OCC3CCC3)cc2c1C(=O)N[C@@H](C)C(N)=O [Cpd 007, (2S)-2-{[5-(cyclobutylmethoxy)-2-methyl-1-benzofuran-3-yl]formamido}propanamide]"
6,< 1000 nM,"Cc1oc2ccc(OC[C@H]3C[C@H](C)C3)cc2c1C(=O)NC(C)(CO)C(N)=O (single isomer, unassigned) [Cpd 059 - En1, Trans-3-hydroxy-2-methyl-2-({2-methyl-5-[(3-methylcyclobutyl)methoxy]-1-benzofuran-3-yl}formamido)propenamide]"
7,< 1000 nM,"Cc1oc2ccc(OCC3CC(F)(F)C3)cc2c1C(=O)NC(C)(CO)C(N)=O (single isomer, unassigned) [Cpd 054 - En2, 2-({5-[(3,3-difluorocyclobutyl)methoxy]-2-methyl-1-benzofuran-3-yl}formamido)-3-hydroxy-2-methylpropanamide]"
8,1000 to 20000 nM,"COCC(C)(CO)NC(=O)c1c(C)oc2ccc(OCC3(C(F)(F)F)CC3)cc12 (single isomer, unassigned) [Cpd 060 - En1, N-(1-hydroxy-3-methoxy-2-methylpropan-2-yl)-2-methyl-5-{[1-(trifluoromethyl)cyclopropyl]methoxy}-1-benzofuran-3-carboxamide]"
9,< 1000 nM,"Cc1oc2ccc(OC[C@H]3C[C@@H]4C[C@@H]4C3)cc2c1C(=O)NC(C)(CO)C(N)=O (single isomer, unassigned) [Cpd 051 - En2, Trans-2-{[5-({bicyclo[3.1.0]hexan-3-yl}methoxy)-2-methyl-1-benzofuran-3-yl]formamido}-3-hydroxy-2-methylpropanamide]"
10,1000 to 20000 nM,"Cc1oc2ccc(OCC3CC3)cc2c1C(=O)NC1CCNCC1(F)F (single isomer, unassigned) [Cpd 024-En1, 5-(cyclopropylmethoxy)-N-(3,3-difluoropiperidin-4-yl)-2-methyl-1-benzofuran-3-carboxamide]"
11,1000 to 20000 nM,"Cc1oc2ccc(OC[C@H]3C[C@@H](C)C3)cc2c1C(=O)NC(C)(CO)C(N)=O (single isomer, unassigned) [Cpd 058 - En2, Cis-3-hydroxy-2-methyl-2-({2-methyl-5-[(3-methylcyclobutyl)methoxy]-1-benzofuran-3-yl}formamido)propenamide]"
12,< 1000 nM,"Cc1oc2ccc(OCC3CC3)cc2c1C(=O)NC1(C(N)=O)COC1 [Cpd 034, N-(3-carbamoyloxetan-3-yl)-5-(cyclopropylmethoxy)-2-methyl-1-benzofuran-3-carboxamide]"
13,< 1000 nM,"Cc1oc2ccc(OCCC3CC3)cc2c1C(=O)N[C@H](C(N)=O)[C@@H](C)O [Cpd 012, (2S,3R)-2-{[5-(2-cyclopropylethoxy)-2-methyl-1-benzofuran-3-yl]formamido}-3-hydroxybutanamide]"
14,1000 to 20000 nM,"Cc1oc2ccc(OCC3CC3)cc2c1C(=O)NC1CCCNC1=O (single isomer, unassigned) [Cpd 055 - En2, 5-(cyclopropylmethoxy)-2-methyl-N-(2-oxopiperidin-3-yl)-1-benzofuran-3-carboxamide]"
15,1000 to 20000 nM,"Cc1oc2ccc(OCC(F)(F)F)cc2c1C(=O)NC(C)(CO)C(N)=O (single isomer, unassigned) [Cpd 047 - En1, 3-hydroxy-2-methyl-2-{[2-methyl-5-(2,2,2-trifluoroethoxy)-1-benzofuran-3-yl]formamido}propanamide]"
16,1000 to 20000 nM,"Cc1oc2ccc(OCC3CCC3)cc2c1C(=O)NC1CCNCC1(F)F (single isomer, unassigned) [Cpd 019 - En1, 5-(cyclobutylmethoxy)-N-(3,3-difluoropiperidin-4-yl)-2-methyl-1-benzofuran-3-carboxamide]"

# Further lines, the compound ahead of its results:
row,Structure (SMILES),IC50
1,"Cc1oc2ccc(OCC3(C(F)(F)F)CC3)cc2c1C(=O)NC1(C)CCCNC1=O (single isomer, unassigned) [Cpd 061 - En2, 2-methyl-N-(3-methyl-2-oxopiperidin-3-yl)-5-{[1-(trifluoromethyl)cyclopropyl]methoxy}-1-benzofuran-3-carboxamide]",1000 to 20000 nM
2,"Cc1oc2ccc(OCC3(C(F)F)CC3)cc2c1C(=O)N[C@H](C(N)=O)[C@@H](C)O [Cpd 011, (2S,3R)-2-[(5-{[1-(difluoromethyl)cyclopropyl]methoxy}-2-methyl-1-benzofuran-3-yl)formamido]-3-hydroxybutanamide]",< 1000 nM
3,"Cc1oc2ccc(OCC3(C(F)(F)F)CC3)cc2c1C(=O)NC(C)(CO)C(N)=O (single isomer, unassigned) [Cpd 048 - En2, 3-hydroxy-2-methyl-2-[(2-methyl-5-{[1-(trifluoromethyl)cyclopropyl]methoxy}-1-benzofuran-3-yl)formamido]propanamide]",< 1000 nM
4,"Cc1oc2ccc(OCC(F)F)cc2c1C(=O)NC1(C(N)=O)CCOC1 (single isomer, unassigned) [Cpd 044 - En2, N-(3-carbamoyloxolan-3-yl)-5-(2,2-difluoroethoxy)-2-methyl-1-benzofuran-3-carboxamide]",< 1000 nM
5,"Cc1oc2ccc(OCC(C)C)cc2c1C(=O)NC1CCNCC1(F)F (single isomer, unassigned) [Cpd 042-En1, N-(3,3-difluoropiperidin-4-yl)-2-methyl-5-(2-methylpropoxy)-1-benzofuran-3-carboxamide]",1000 to 20000 nM
6,"Cc1oc2ccc(OCC3CC3)cc2c1C(=O)NC(CO)C(N)C(F)(F)F (single isomer, unassigned) [Cpd 056 - En4, N-[(2)-3-amino-4,4,4-trifluoro-1-hydroxybutan-2-yl]-5-(cyclopropylmethoxy)-2-methyl-1-benzofuran-3-carboxamide]",1000 to 20000 nM
7,"Cc1oc2ccc(OC[C@@H]3C[C@@H]4C[C@@H]4C3)cc2c1C(=O)NC(C)(CO)C(N)=O (single isomer, unassigned) [Cpd 050 - En1, Cis-2-{[5-({bicyclo[3.1.0]hexan-3-yl}methoxy)-2-methyl-1-benzofuran-3-yl]formamido}-3-hydroxy-2-methylpropanamide]",1000 to 20000 nM
8,"Cc1oc2ccc(OCC3CC3(C)C)cc2c1C(=O)NC(C)(CO)C(N)=O (single isomer, unassigned) [Cpd 049 - En1, 2-({5-[(2,2-dimethylcyclopropyl)methoxy]-2-methyl-1-benzofuran-3-yl}formamido)-3-hydroxy-2-methylpropanamide]",< 1000 nM
9,"Cc1oc2ccc(OCC3(C)CC3)cc2c1C(=O)NC1CCNCC1(F)F (single isomer, unassigned) [Cpd 032 - En1, N-(3,3-difluoropiperidin-4-yl)-2-methyl-5-[(1-methylcyclopropyl)methoxy]-1-benzofuran-3-carboxamide]",< 1000 nM
10,"Cc1oc2cc(F)c(OCC3CC3)cc2c1C(=O)NC(C)(CO)C(N)=O (single isomer, unassigned) [Cpd 045 - En2, 2-{[5-(cyclopropylmethoxy)-6-fluoro-2-methyl-1-benzofuran-3-yl]formamido}-3-hydroxy-2-methylpropanamide]",< 1000 nM
11,"Cc1oc2ccc(OCC3CC3(C)C)cc2c1C(=O)NC(C)(CO)C(N)=O (single isomer, unassigned) [Cpd 049 - En4, 2-({5-[(2,2-dimethylcyclopropyl)methoxy]-2-methyl-1-benzofuran-3-yl}formamido)-3-hydroxy-2-methylpropanamide]",< 1000 nM
12,"Cc1oc2ccc(OCC3CC3)cc2c1C(=O)NC(CO)C(N)C(F)(F)F (single isomer, unassigned) [Cpd 056 - En3, N-[(2)-3-amino-4,4,4-trifluoro-1-hydroxybutan-2-yl]-5-(cyclopropylmethoxy)-2-methyl-1-benzofuran-3-carboxamide]",< 1000 nM
13,"Cc1oc2ccc(OCC3CC3)cc2c1C(=O)N[C@@H](CO)C(N)=O [Cpd 001, (2S)-2-{[5-(cyclopropylmethoxy)-2-methyl-1-benzofuran-3-yl]formamido}-3-hydroxypropanamide]",< 1000 nM
